According to patent US4254155A, “Preparing neohesperidin dihydrochalcone sweetener composition” (Chimicasa GmbH, priority 1979, dated 1981):

Experiment: discoloration / colour of aqueous NHDC solution
Type: physicochemical
Conditions: over a period of time
Source text: The preferred acidulants are weak organic C1 -C6 organic mono- or di-carboxylic acids.
The acidulant-like malic or citric acid is incorporated to lower the pH to less than 6.5, in order to remove the yellow color formed in aqueous solutions of NHDC-based compositions.

COc1ccc(CCC(=O)c2c(O)cc(O[C@@H]3O[C@H](CO)[C@@H](O)[C@H](O)[C@H]3O[C@@H]3O[C@@H](C)[C@H](O)[C@@H](O)[C@H]3O)cc2O)cc1O [NHDC, Neohesperidin dihydrochalcone]
discoloration of aqueous NHDC solution: yellow discoloration
